Reference: US20060058263A1, “Heat pasturized liquids containing glucosamine” (priority 2002, published 2006)

Assay: Amount of GLCN present following heating (HPAEC-PAD recovery)
Assay type: physicochemical
Description: To determine the amount of GLCN that remains following exposing GLCN beverages to a high temperature, such as those used in pasteurization, the following methods were used.
A beverage sample as described in the preceding examples containing […] of GLCN was dispersed in 25 g of 1.0 N HCl in a 50-mL polypropylene centrifuge tube and capped tightly. The sample was mixed for 30 seconds using a vortex mixer, then placed in a water bath at 37° C. The sample was removed from the water bath at 15-minute intervals, mixed for 30 seconds on a vortex mixer, then returned to the water bath. This cycle was repeated until the sample had been in the water bath for one hour.
After heating, the sample was mixed for 30 seconds on a vortex mixer, then centrifuged for 10 minutes to separate the liquid and solid phases. Fats, oils or lipids in the sample formed a third layer at the top of the tube. A 1-g aliquot of the aqueous sample portion was diluted 100-fold with deionized water, then transferred to an autosampler vial with filter cap.
The free glucosamine in prepared samples was determined using high performance anion-exchange chromatography with pulsed amperometric detection ([…]). The system included an EG40 eluent generator, GP50 gradient pump, AS40 autosampler, LC25 column oven, and ED40 electrochemical detector, all produced by Dionex Corporation (Sunnyvale, Calif.).
The method was adapted from Dionex Corporation Technical Note 40. A Dionex CarboPac PA-20 column was used in place of the PA-10 described in the Technical Note. The eluent was 8 mM KOH at 0.5 mL/min. The column and detector were maintained at 30° C. The injection volume was 10 μL. The standard was glucosamine hydrochloride at 10.8 mg/L. Fermentation broth samples were diluted five-fold with deionized water, ASTM Type II, and filtered through 0.2 μ vial filters in the autosampler. Multiple standards were analyzed before and after each sample set.

SMILES: N[C@H]1C(O)O[C@H](CO)[C@@H](O)[C@@H]1O (some centres unmarked) [GLCN, glucosamine]
- % GlcNHCl Recovered (Grape juice, boil, 5 min): 102%
- % GlcNHCl Recovered (Lemonade, 71 ° C., 20 min): 101%
- % GlcNHCl Recovered (Lemonade, 90 ° C., 20 sec): 101%
- % GlcNHCl Recovered (Lemonade, boil, 5 min): 100%
- % GlcNHCl Recovered (Lemonade, room temperature): 102%
